Assay: logP (octanol/water) at 25° C.
Format: physicochemical
Experimental: In one aspect, the lipophilic ingredient is one having a partition coefficient between octanol and water (log P (octanol/water) at 25° C.) of greater than or equal to 1.5, specifically greater than or equal to 2.0, more specifically greater than or equal to 2.5, yet more specifically greater than or equal to 3.0, still yet more specifically greater than or equal to 3.5, and more specifically greater than or equal to 4.0. The partition coefficient of material can be determined experimentally or calculated using commercially available software.

Row | SMILES | logP | logP (octanol/water) at 25° C.
1 | CC1CCC(C(C)C)C(O)C1 (stereo not shown) [menthol, reference compound] | 3.4 | –
2 | CC(C)[C@@H]1CC[C@@H](C)C[C@H]1OC(=O)CCCC(=O)O [monomenthyl glutarate] | – | 4.12
3 | CCOC(=O)CNC(=O)C1CC(C)CCC1C(C)C (stereo not shown) [ethyl 2-[(5-methyl-2-propan-2-ylcyclohexanecarbonyl)amino]acetate] | 3.38 | –
4 | CCNC(=O)C1CC(C)CCC1C(C)C (stereo not shown) [N-ethyl-p-menthane-3-carboxamide (WS-3), N-ethyl-p-menthane-3-carboxamide] | 3.81 | –
5 | CCNC(=O)C(CC)(C(C)C)C(C)C [N-ethyl-2,2-diisopropylbutanamide] | 3.6 | –
6 | C/C=C/C=C\CC/C=C/C(=O)NCC(C)C [spilanthol, N-isobutyl-2E,6Z,8E-decatrienamide] | 3.4 | –
7 | CNC(=O)C(C)(C(C)C)C(C)C [N,2,3-trimethyl-2-propan-2-ylbutanamide] | 2.48 | –
